From publication PMC12203428, “Discovery of Clonixeril as a Sub-Femtomolar Modulator of the Human STING Receptor” (ACS Central Science, 2025)

Legend:
[1] = target: T1, hSTING CTD (STING R232 variant) (Homo sapiens, UniProt Q86WV6, H232R); experiment: Microscale thermophoresis; assay type: binding; conditions: for Activity in MST assay: competition with 2′,3′-cGAMP
T1 construct: 6X-His tagged hSTING^WT, R232 variant, CTD protein was purchased; purchased Invivogen (USA) or Cayman Chemicals (USA)
Method: Small molecule affinities at subpicomolar concentrations are typically difficult to determine by MST due to the inability of the detector to measure differential movement of proteins when largely disproportionate ratios of protein to ligand are involved. […] Generally, an IC50 correlates well with a K D when a small molecule competes for binding with a natural substrate for a target protein.
The resulting mixture was centrifuged at 12,000 x RPM 10 min prior to use. […] The samples were run again at 30- and 45 min. Detection of the protein was performed using the blue detection channel with excitation power set to 100% and MST set to high allowing 3 s prior to MST on to check for initial fluorescence differences, 35 s for thermophoresis, and 3 s for regeneration after MST off. Analysis was performed using M.O. Affinity Analysis Software with difference between initial fluorescence measured in the first 5 s as compared with thermophoresis at 30 s at 16 different analyte concentrations ranging from 100 μM to 100 zM and exported into Graphpad Prism v.8 using a Log inhibitor versus response for parameter fit.

[2] = target: STING CTD; design: method as in not given; conditions: ref not given; read-out: KD previously reported (ITC); cited from earlier work
[3] = target: T2, SUMO-hSTING CTD (Homo sapiens, UniProt Q86WV6, H232R); experiment: Isothermal titration calorimetry; assay type: binding; design: human STING (amino acid 155–343) was synthesized and subcloned into pET28a vector; made in house; host or cells: E. coli BL21(DE3)
From the text: In order to further explore the interaction between CXL and hSTING CTD, we employed Isothermal calorimetry (ITC) to measure the heat evolved accompanying CXL’s effect on SUMO-hSTING^WT CTD. […] In Figure A, we show the ITC data we obtained. […]. […] In Figure B, we also find that the binding isotherm is far from steady state or equilibrium, and thus, we could not obtain reliable thermodynamic parameters. Nonetheless, a significant amount of heat was released in the process of CXL interacting with the hSTING CTD. On the other hand, we were most interested in ITC measurements taken at femtomolar concentrations, given the biophysical experiments and in cellulo studies already described. Initial experiments treating the hSTING CTD with femtomolar concentrations of CXL were unsuccessful, likely due to the insensitivity of the instrument. […]. MicroCal ITC200 instrument (Malvern Pananalytical) was used to assess STING and CXL interactions. Both recombinantly purified STING domains (residues 155–343) containing a SUMO tag and CXL were buffer-exchanged and made in the same buffer composition, respectively, to avoid buffer mismatch. The same buffer cocktail was used in all ITC experiments, containing 25 mM HEPES (pH, 7.4), 150 mM NaCl, 5% glycerol, 0.5 mM TCEP, and 5% DMSO. STING protein from −80 °C aliquots was spun down at 12,000 RPM for 5–10 min before each run to remove any aggregates, diluted into the ITC buffer above (either as 40 μM STING alone or as 40 μM STING plus 20 μM 2,3-cGAMP), and loaded into the cell. CXL at various concentrations for different experiments was loaded into the syringe (Hamilton). For the control and reference, an ITC buffer devoid of CXL was used. ITC experiments were conducted at 25 °C using an initial 0.4 μL injection and 19 subsequent injections of 2 μL each at 150 s intervals. Heat of dilution (differential power) of the 19 injections resulting from the binding event was fitted into the nonlinear least-squares equation incorporated in the MicroCal ITC200 analysis software. The K D and other thermodynamic parameters were derived from curve fitting using MicroCal software.

[4] = target: T3, His-hSTING CTD (Homo sapiens, UniProt Q86WV6, H232R); experiment: Surface plasmon resonance; assay type: binding; conditions: read-out: KD (SPR)
T3 construct: purchased Invivogen (USA) or Cayman Chemicals (USA)
Method: SPR was employed for binding measurements using the His-tagged hSTING^WT CDN domain. A GE Healthcare Biacore T200 was equipped with a Ni-NTA chip. […] The sensorgrams were analyzed using Biacore T200 Software 3.0 and steady state was measured at 4 s before injection stop, exported into Graphpad, and fit versus concentration using a one site specific binding model to calculate the apparent equilibrium dissociation constant (K D). Where appropriate, kinetics were measured using a 1:1 Langmuir binding model with R max set to local to obtain the association rate (K on), dissociation (K off)

[5] = system: STING; design: method as in Ergun et al.; conditions: ref Ergun et al., cited from earlier work
[6] = target: T2, SUMO-hSTING CTD; experiment: Dynamic light scattering of STING oligomerization; conditions: 50 nM STING CTD; S-isomer up to 500 fM; reviewer's reading
Method: (B) DLS was performed for 2 h (n = 960 measurements) with 50 nM STING exposed to analytes. […] Blue blocks indicate size counts as a percentage to overall mass over selected mass ranges. […] Measurements were made using a Malvern Zetasizer Nano ZS set to 40 measurements at 1 s/measurement and 24 runs.

[7] = system: p-IRF3 in HEK293S cells (hSTING pathway); experiment: Phospho-IRF3 Western blot in HEK293S cells with diABZI3; assay type: cell-based, human; conditions: 100 fM compound, 100 nM diABZI3, preliminary
Method: HEK293T cells transfected with hSTINGWT cells were seeded in a 6-well plate in DMEM
(supplemented with 10% heat-inactivated fetal bovine serum, 1X Corning Penicillin-Streptomycin
solution and 0.01mg/mL Blasticidin). Upon reaching ~80% confluence, cells were pretreated with
varying concentrations of CXL in FBS-free DMEM for 2 hours. This was followed by treatment
with diABZI3 (100nM) for 1 hour. The cells were scraped, harvested by centrifugation at 1000 x g
for 3 mins. The resulting pellet is resuspended in 1X PBS with 1X Halt protease & phosphatase
inhibitor and 1% NP-40. Cell lysis was performed by probe sonication. The cell lysate is further
denatured in 1X SDS loading buffer by boiling for 10 mins and separated by SDS-PAGE (4-20%
gel). The separated proteins were electrically transferred to a PVDF membranes separately,
which was probed with primary (α-pIRF3, α-IRF3 & α-STING) and secondary (goat anti-rabbit IR
dye 680 & goat anti-mouse IR dye 800CW) antibodies. The blots were visualized using a LICOR
Image Analyzer. All the experiments were performed at least in duplicate.

[8] = system: IFN-β expression in HEK293 cells; experiment: HEK293 real-time qPCR for IFN-β; conditions: 4 μM 2′,3′-cGAMP 3 h, positive control
Method: IFN-β expression levels were measured using real-time qPCR.
HEK293 cells were seeded at 700,000 cells per 60 mm plate confluency and treated 36 h later.

[9] = target: the molecule itself; experiment: dynamic light scattering; 50 nM STING with 50 nM 2′,3′-cGAMP and a titrated range of analyte (CXL, CXN, H-151), HBS-P pH 7.4, 2 h
[10] = 500 μM c-diGMP to 40 μM hSTING CTD

T1 sequence (Q86WV6 153-340 H232R): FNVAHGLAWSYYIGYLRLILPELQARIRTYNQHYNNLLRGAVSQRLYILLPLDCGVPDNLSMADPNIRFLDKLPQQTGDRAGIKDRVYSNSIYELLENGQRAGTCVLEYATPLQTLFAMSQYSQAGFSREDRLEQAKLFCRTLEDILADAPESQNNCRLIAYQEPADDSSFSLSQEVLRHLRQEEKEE
T2 sequence (Q86WV6 155-343 H232R): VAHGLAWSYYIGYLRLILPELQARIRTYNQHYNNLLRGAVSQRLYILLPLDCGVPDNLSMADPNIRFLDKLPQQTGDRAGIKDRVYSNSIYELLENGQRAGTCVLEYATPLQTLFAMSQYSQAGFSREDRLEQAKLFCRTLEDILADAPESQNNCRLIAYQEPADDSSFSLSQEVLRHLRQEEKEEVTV
T3 sequence (Q86WV6 153-340 H232R): as the sequence (Q86WV6 153-340 H232R) above

Cc1cccc(Nc2ccccc2C(=O)OCC(O)CO)c1C (stereo not drawn) [MFE, mefenamic acid glycerol ester]
KD (Table S1, Thermophoresis) ([1]; +50 nM 23cGAMP): No shift
Activity in MST assay [1]: no indication of activity at any concentration below 1 μM

Nc1nc2c(ncn2C2OC3COP(=O)(O)OC4C(COP(=O)(O)OC3C2O)OC(n2cnc3c(=O)[nH]c(N)nc32)C4O)c(=O)[nH]1 (stereo not drawn) [c-diGMP, cyclic di-GMP, reference compound]
Kd [2]: 3700 nM
ΔH0 (ITC) [3, 10]: -24.6 kcal/mol
ΔS0 (ITC) [3, 10]: −56.5 cal/mol/deg
Kd ([3]; read-out: KD (ITC)): 2170 nM
Kd [4]: 4780 ± 1650 nM
Hill coefficient for STING activation [5]: 2.6
IC50 ([5]; read-out: IC50 for inhibition of the action of 2′,3′-cGAMP): ~800 nM

Cc1c(Cl)cccc1Nc1ncccc1C(=O)OC[C@@H](O)CO (single isomer, unassigned) [S-enantiomer, S-clonixeril]
Effect of enantiomers on protein aggregate size [6]: no effect
Activity in MST assay [1]: an effect at higher concentrations
Effect on p-IRF3 [7]: no effect

Nc1nc2c(ncn2C2OC3COP(=O)(O)OC4C(COP(=O)(O)OC2C3O)OC(n2cnc3c(N)ncnc32)C4O)c(=O)[nH]1 (stereo not drawn) [2′,3′-cGAMP, cyclic guanosine-(2′→5′)-monophosphate-adenosine-(3′→5′)-monophosphate, reference compound]
Induction of IFN-β production [8]: 7.4 fold

Cc1c(Cl)cccc1Nc1ncccc1C(=O)OC[C@H](O)CO (single isomer, unassigned) [R-enantiomer, R-clonixeril]
Effect of enantiomers on protein aggregate size [6]: slightly less potent
Activity in MST assay [1]: subfemtomolar activity
Effect on p-IRF3 [7]: agonistic

Cc1c(Cl)cccc1Nc1ncccc1C(=O)OCCCCOC(=O)c1cccnc1Nc1cccc(Cl)c1C [Compound 14]
Activity in MST assay [1]: quite active

B1: His-SUMO-TEV-hSTING CTD (domain or fragment, human, UniProt Q86WV6 155-343, looked up)
chain: VAHGLAWSYYIGYLRLILPELQARIRTYNQHYNNLLRGAVSQRLYILLPLDCGVPDNLSMADPNIRFLDKLPQQTGDHAGIKDRVYSNSIYELLENGQRAGTCVLEYATPLQTLFAMSQYSQAGFSREDRLEQAKLFCRTLEDILADAPESQNNCRLIAYQEPADDSSFSLSQEVLRHLRQEEKEEVTV
notes: human STING (stimulator of interferon genes), C-terminal domain, amino acids 155-343, wild type (R232) allele; a TEV site lies between SUMO and STING by the construct's name; Synthetic gene in pET28a; also called SUMO-hSTING CTD; SUMO-hSTING^WT CTD; source: E. coli BL21(DE3), purified (Ni-NTA); not shown: His6, N-terminal, kept; SUMO, N-terminal, kept
binding result [9]: binds
